Common to all, as to assay type: biochemical
One test concerns the target human PDE1C (Homo sapiens (Human), UniProt Q14123). The test is described as follows: Ca2+-calmodulin dependent PDE enzyme assay (radiometric SPA, [3H]cAMP). Conditions: Mean ± standard deviation; [3H]cAMP 47 nM; read-out: PDE 1C IC50. An excerpt:
(§1) The nucleotide sequences encoding full-length human PDE1A (NP_001003683.1) and PDE1C (NP_005011.1) are inserted into pFastBac1 (Invitrogen) vector with an N-terminal HIS tag. The nucleotide sequences encoding full-length human PDE4D (NP_006194.2) and catalytic domain (residue 641-1141) of PDE3A (NP_000912.3) are inserted into pFastBac1 (Invitrogen) vector with a C-terminal HIS tag. The nucleotide sequences encoding full-length human PDE6A (NP_000431.2) and PDE6B (AAH00249.1) are inserted into pFastBacDual (Invitrogen) vector with an N-terminal HIS tag and N-terminal Flag tag, respectively, for production of PDE6A/6B dimer. Baculovirus generation and protein expression in Sf9 cells are carried out according to the protocol of Bac-to-Bac Baculovirus Expression system (Invitrogen). The nucleotide sequence encoding full-length human PDE1B (NP_000915.1) is inserted into pIEX4 (Novagen) with a C-terminal HIS tag, and both protein productions in Sf9 cells are carried out according to the vendor's protocol (Novagen). The His tagged PDE proteins are purified using Ni-NTA agarose (Qiagen) followed by size exclusion chromatography on a SUPERDEX© 200 column (GE Healthcare) in storage buffer (20 mM Tris-HCl, pH 7.5, 150 mM NaCl, 10% Glycerol). The Flag tagged PDE proteins including PDE6A/6B are purified using anti-Flag M2-agarose (Sigma), after purification through NiNTA column chromatography and eluted in storage buffer (50 mM Tris-HCl, pH 7.5, 150 mM NaCl, 10% Glycerol, 0.1 mg/ml Flag peptide). All purified proteins are stored at −80° C. in small aliquots.
(§2) All 3′, 5′ cyclic nucleotide PDE enzyme activities are measured with a radiometric enzyme assay based on SPA detection system. Compounds to be tested are diluted in pure DMSO using ten point concentration response curves. Maximal compound concentration in the reaction mixture is either 10 or 100 μM. Compounds at the appropriate concentration are pre-incubated with either of the PDE enzymes for 30 minutes before the reaction is started by the addition of substrate. Reactions are allowed to proceed for 60 minutes at room temperature. Next, reactions are stopped by addition of SPA beads. Samples are read 12 hours later in a MICROBETA™ TRILUX© Counter. IC50 values are calculated by plotting the normalized data vs. log [compound] and fitting the data using a four parameter logistic equation.
(§3) PDE1B, PDE1A, and PDE1C are cloned and purified following standard protein generation procedures. […] The final enzyme concentration is 0.25, 0.074 and 0.0012 nM, for PDE1A, PDE1B and PDE1C respectively. The reactions are started by addition of the substrate, [^3H]cAMP, to give a final concentration of 47 nM.

For test [1], the target named is human PDE3A (catalytic domain) (Homo sapiens (Human), UniProt Q14432). The test is described as follows: PDE enzyme assay using [3H]cAMP as substrate (SPA). Conditions: [3H]cAMP 47 nM.
human PDE3A (catalytic domain), sequence (Q14432 641-1141): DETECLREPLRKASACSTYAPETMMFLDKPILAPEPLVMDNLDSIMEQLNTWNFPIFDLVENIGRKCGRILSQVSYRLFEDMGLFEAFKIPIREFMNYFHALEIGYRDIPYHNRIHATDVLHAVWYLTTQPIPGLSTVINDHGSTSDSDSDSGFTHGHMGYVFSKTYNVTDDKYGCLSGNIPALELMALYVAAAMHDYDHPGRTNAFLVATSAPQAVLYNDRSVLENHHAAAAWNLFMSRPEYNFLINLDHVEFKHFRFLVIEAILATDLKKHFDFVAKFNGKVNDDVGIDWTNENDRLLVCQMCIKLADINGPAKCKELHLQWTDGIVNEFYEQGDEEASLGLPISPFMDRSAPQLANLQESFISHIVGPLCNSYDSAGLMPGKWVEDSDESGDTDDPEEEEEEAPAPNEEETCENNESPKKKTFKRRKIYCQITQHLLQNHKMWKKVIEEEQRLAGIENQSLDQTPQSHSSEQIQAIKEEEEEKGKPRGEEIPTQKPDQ
Text: as §1, §2
(§4) The following PDE activities are measured using [3H]cAMP as reaction substrate: human PDE3A (catalytic domain) and human PDE4D. Both enzymes are cloned and purified following standard procedures. The assay buffer is prepared to give a final concentration in the assay of 50 mM Tris-HCl, 8.3 mM MgCl2, 1.7 mM EDTA and 0.1% BSA at pH 7.5. Final enzyme concentrations are 0.008 and 0.021 nM for PDE3A and PDE4D, respectively. Reactions are started by addition of the substrate, [3H]cAMP, to give a final concentration of 47 nM.

In the next test the target is human PDE4D (Homo sapiens (Human), UniProt Q08499). The test is described as follows: PDE enzyme assay using [3H]cAMP as substrate (SPA). To be noted: Mean ± standard deviation; [3H]cAMP 47 nM.
human PDE4D, sequence (Q08499 other isoform, or with tags, fused parts or gaps): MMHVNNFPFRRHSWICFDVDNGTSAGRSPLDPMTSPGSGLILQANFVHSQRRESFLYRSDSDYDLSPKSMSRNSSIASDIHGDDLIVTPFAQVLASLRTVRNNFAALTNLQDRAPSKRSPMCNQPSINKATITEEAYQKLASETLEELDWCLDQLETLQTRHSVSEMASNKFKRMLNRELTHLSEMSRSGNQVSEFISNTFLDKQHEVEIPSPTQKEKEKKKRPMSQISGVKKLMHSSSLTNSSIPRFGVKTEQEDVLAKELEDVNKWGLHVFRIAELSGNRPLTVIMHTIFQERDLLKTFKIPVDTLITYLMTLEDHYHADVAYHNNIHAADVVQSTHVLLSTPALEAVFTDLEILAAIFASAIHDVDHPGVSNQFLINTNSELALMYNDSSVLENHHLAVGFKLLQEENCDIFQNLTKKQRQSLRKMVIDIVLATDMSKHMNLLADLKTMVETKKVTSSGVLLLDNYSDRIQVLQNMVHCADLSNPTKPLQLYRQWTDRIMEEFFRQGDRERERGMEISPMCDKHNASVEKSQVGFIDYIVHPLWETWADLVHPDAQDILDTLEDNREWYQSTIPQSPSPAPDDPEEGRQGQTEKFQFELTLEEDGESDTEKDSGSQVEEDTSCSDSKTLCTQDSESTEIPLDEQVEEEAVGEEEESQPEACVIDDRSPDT
Text: as §1, §2, §4

A further test has as its target human PDE6A/6B (Homo sapiens (Human), UniProt P16499+P35913). In words: PDE enzyme assay using [3H]cGMP as substrate (SPA). To be noted: [3H]cGMP 80 nM; read-out: PDE6AB IC50.
Text: as §1, §2
The following phosphodiesterase activities are measured using [3H]cGMP as reaction substrate: human PDE6A/6B. The catalytic active form of human PDE6 is a dimer composed of an a (human PDE6A) and […] (human PDE6B). The dimer of human PDE6A/6B is produced by the coexpression and purification strategy, using two purification steps, i.e., NiNTA and anti-FLAG Sepharose chromatography. The assay buffer is prepared to give a final concentration in the assay of 50 mM Tris-HCl, 8.3 mM MgCl2, 1.7 mM EDTA and 0.1% BSA at pH 7.5. The final enzyme concentration is 5 nM. The reactions are started by addition of the substrate, [3H]cGMP, to give a final concentration of 80 nM.

For the next test, the target named is human PDE1A (Homo sapiens (Human), UniProt P54750). In words: Ca2+-calmodulin dependent PDE enzyme assay (radiometric SPA, [3H]cAMP). Conditions: Mean ± standard deviation; [3H]cAMP 47 nM; read-out: PDE 1A IC50.
Text: as §1, §2, §3

Another test deals with human PDE1B (Homo sapiens (Human), UniProt Q01064). The test is described as above. To be noted: Mean ± standard deviation; [3H]cAMP 47 nM; read-out: PDE 1B IC50.
Text: as §1, §2, §3

Where only a bound is given, the exact number is not on record here.

human PDE6A/6B, sequence (P16499 whole entry): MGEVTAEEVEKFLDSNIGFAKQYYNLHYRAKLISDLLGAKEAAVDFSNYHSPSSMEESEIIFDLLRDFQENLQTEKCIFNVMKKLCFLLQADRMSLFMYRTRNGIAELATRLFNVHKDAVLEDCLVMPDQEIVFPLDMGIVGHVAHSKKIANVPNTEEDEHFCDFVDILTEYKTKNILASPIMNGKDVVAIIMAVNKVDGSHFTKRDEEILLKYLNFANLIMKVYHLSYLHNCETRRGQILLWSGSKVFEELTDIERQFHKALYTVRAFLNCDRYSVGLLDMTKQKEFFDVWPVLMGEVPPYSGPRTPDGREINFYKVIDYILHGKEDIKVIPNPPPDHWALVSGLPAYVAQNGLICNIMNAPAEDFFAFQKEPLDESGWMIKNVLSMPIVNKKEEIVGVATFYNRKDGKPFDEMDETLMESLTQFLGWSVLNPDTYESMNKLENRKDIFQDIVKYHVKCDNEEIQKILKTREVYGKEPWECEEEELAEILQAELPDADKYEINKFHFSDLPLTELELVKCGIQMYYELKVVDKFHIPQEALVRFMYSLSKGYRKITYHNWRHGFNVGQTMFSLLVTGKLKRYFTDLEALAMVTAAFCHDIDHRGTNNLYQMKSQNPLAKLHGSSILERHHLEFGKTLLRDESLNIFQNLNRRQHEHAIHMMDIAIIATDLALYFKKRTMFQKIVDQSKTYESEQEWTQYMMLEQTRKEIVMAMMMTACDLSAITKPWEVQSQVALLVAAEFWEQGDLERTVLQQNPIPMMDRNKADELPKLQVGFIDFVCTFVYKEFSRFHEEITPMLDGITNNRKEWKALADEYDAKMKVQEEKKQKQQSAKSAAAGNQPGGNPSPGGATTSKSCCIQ
human PDE6A/6B, sequence (P35913 whole entry): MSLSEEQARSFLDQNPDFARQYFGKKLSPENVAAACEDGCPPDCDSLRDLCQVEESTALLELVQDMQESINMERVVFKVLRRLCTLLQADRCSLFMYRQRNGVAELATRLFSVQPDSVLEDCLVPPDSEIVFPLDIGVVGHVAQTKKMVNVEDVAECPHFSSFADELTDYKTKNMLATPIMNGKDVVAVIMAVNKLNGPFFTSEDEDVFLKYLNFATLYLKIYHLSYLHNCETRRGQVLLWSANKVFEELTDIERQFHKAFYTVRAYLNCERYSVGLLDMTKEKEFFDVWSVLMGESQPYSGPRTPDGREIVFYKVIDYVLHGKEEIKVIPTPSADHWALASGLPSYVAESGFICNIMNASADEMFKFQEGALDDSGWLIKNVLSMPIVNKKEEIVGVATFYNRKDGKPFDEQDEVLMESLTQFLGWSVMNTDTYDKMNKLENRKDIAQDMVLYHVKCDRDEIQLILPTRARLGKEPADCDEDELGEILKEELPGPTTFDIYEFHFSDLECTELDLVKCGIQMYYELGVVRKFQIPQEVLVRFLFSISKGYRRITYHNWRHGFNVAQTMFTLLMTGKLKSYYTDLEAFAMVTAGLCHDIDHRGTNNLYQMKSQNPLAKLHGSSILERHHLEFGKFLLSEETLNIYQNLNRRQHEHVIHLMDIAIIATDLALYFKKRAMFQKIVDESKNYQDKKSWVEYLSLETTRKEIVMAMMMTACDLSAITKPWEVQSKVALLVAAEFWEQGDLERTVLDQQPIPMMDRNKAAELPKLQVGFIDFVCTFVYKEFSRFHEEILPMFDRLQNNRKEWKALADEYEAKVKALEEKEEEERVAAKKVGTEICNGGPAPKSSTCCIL

With `Cc1c(C)n2c(C3(C4CC4)CC3)nnc2c(=O)n1CC1CCCCO1` (racemic) [Example 6, 3-(1-cyclopropylcyclopropyl)-5,6-dimethyl-7-(tetrahydropyran-2-ylmethyl)-[1,2,4]triazolo[4,3-a]pyrazin-8-one], the IC50 was 0.00188 ± 0.00056 µM on human PDE1C, more than 100 µM in test [1], 30.9 µM against human PDE4D and more than 10 µM at human PDE6A/6B.

For `CCC1(c2nnc3c(=O)n(CC4CCCCO4)c(C)c(C)n23)CC1` (racemic) [Example 7, 3-(1-Ethylcyclopropyl)-5,6-dimethyl-7-(tetrahydropyran-2-ylmethyl)-[1,2,4]triazolo[4,3-a]pyrazin-8-one], the IC50 is 0.00776 µM at human PDE1C, more than 100 µM in test [1], 46.5 µM against human PDE4D and more than 10 µM on human PDE6A/6B.

On to `Cc1c(C)n2c(C3(C)CC3)nnc2c(=O)n1CC1CCCCO1` (racemic) [Example 8, 5,6-Dimethyl-3-(1-methylcyclopropyl)-7-(tetrahydropyran-2-ylmethyl)-[1,2,4]triazolo[4,3-a]pyrazin-8-one], for which the values for the half-maximal inhibitory concentration (IC50) (in test [1]; on human PDE4D; at human PDE6A/6B) were more than 100 µM, 57.7 µM and 2.66 µM, respectively.

In the case of `Cc1c(C)n2c(C3(C4CC4)CC3)nnc2c(=O)n1CC1CCCCO1` (single isomer, unassigned) [Example 9, 3-(1-Cyclopropylcyclopropyl)-5,6-dimethyl-7-(tetrahydropyran-2-ylmethyl)-[1,2,4]triazolo[4,3-a]pyrazin-8-one], the IC50 was 0.000958 ± 0.000487 µM on human PDE1C, more than 100 µM in test [1], 33.1 µM at human PDE4D and more than 10 µM on human PDE6A/6B.

As for `Cc1c(C)n2c(C3(C4CC4)CC3)nnc2c(=O)n1CC1CCCCO1` (single isomer, unassigned) [Example 10], the IC50 is 0.002 ± 0.000311 µM on human PDE1C, more than 100 µM in test [1], 21.4 µM against human PDE4D and more than 10 µM at human PDE6A/6B.

For the molecule `CCC1(c2nnc3c(=O)n(CC4CCCCO4)c(C)c(C)n23)CC1` (single isomer, unassigned) [Example 11, 3-(1-Ethylcyclopropyl)-5,6-dimethyl-7-(tetrahydropyran-2-ylmethyl)-[1,2,4]triazolo[4,3-a]pyrazin-8-one], the 50% inhibitory concentration (IC50) on human PDE1A was 0.0132 µM; on human PDE1C, 0.00477 ± 6e-05 µM; in test [1], more than 100 µM; at human PDE4D, 67.2 µM; on human PDE6A/6B, more than 10 µM.

With `CCC1(c2nnc3c(=O)n(CC4CCCCO4)c(C)c(C)n23)CC1` (single isomer, unassigned) [Example 12, 3-(1-Ethylcyclopropyl)-5,6-dimethyl-7-(tetrahydropyran-2-ylmethyl)-[1,2,4]triazolo[4,3-a]pyrazin-8-one], the IC50 on human PDE1A is 0.0446 µM; on human PDE1C it was 0.0132 µM; in test [1], more than 100 µM; at human PDE4D it was 31 µM; at human PDE6A/6B it was 7.62 µM.

Turning to `Cc1c(C)n2c(C3(C)CC3)nnc2c(=O)n1CC1CCCCO1` (single isomer, unassigned) [Example 13, 5,6-Dimethyl-3-(1-methylcyclopropyl)-7-(tetrahydropyran-2-ylmethyl)-[1,2,4]triazolo[4,3-a]pyrazin-8-one], the half-inhibitory concentration (IC50) is more than 100 µM in test [1], more than 100 µM at human PDE4D and more than 10 µM at human PDE6A/6B.

Consider `Cc1c(C)n2c(C3(C)CC3)nnc2c(=O)n1CC1CCCCO1` (single isomer, unassigned) [Example 14, 5,6-Dimethyl-3-(1-methylcyclopropyl)-7-(tetrahydropyran-2-ylmethyl)-[1,2,4]triazolo[4,3-a]pyrazin-8-one], for which the IC50 in test [1] was more than 100 µM; at human PDE4D, 40.8 µM; on human PDE6A/6B, more than 10 µM.

With `Cn1cc(Cc2cn3c(C4(C5CC5)CC4)nnc3c(=O)n2CC2CC2)cn1` [Example 1, 3-(1-Cyclopropylcyclopropyl)-7-(cyclopropylmethyl)-6-[(1-methylpyrazol-4-yl)methyl]-[1,2,4]triazolo[4,3-a]pyrazin-8-one], the IC50 at human PDE1A was 0.0203 ± 0.0005 µM; at human PDE1B it was 0.0294 ± 0.0116 µM; at human PDE1C, 0.012 ± 0.004 µM; in test [1], more than 100 µM; on human PDE4D, 5.59 µM; on human PDE6A/6B, more than 10 µM.

In the case of `Cc1c(C)n2c(C3(C4CC4)CC3)nnc2c(=O)n1CC1CC1` [Example 2, 3-(1-Cyclopropylcyclopropyl)-7-(cyclopropylmethyl)-5,6-dimethyl-[1,2,4]triazolo[4,3-a]pyrazin-8-one], the IC50 on human PDE1A was 0.00373 ± 0.00202 µM; at human PDE1B it was 0.00411 ± 0.0011 µM; on human PDE1C, 0.00281 ± 0.00088 µM; in test [1], more than 100 µM; at human PDE4D, 23.8 ± 0.8 µM; at human PDE6A/6B, more than 10 µM.

In the case of `CCCCCn1c(C)c(C)n2c(C3(C4CC4)CC3)nnc2c1=O` [Example 3, 3-(1-Cyclopropylcyclopropyl)-5,6-dimethyl-7-pentyl-[1,2,4]triazolo[4,3-a]pyrazin-8-one], the half-maximal inhibitory concentration (IC50) at human PDE1A is 0.011 ± 0.002 µM; on human PDE1B it was 0.00936 ± 0.00201 µM; on human PDE1C it was 0.00126 ± 0.00061 µM; in test [1] it was more than 100 µM; against human PDE4D, 14.3 µM; on human PDE6A/6B, more than 10 µM.

In the case of `Cc1c(C)n2c(C3(C4CC4)CC3)nnc2c(=O)n1CC1CCC1` [Example 4, 7-(Cyclobutylmethyl)-3-(1-cyclopropylcyclopropyl)-5,6-dimethyl-[1,2,4]triazolo[4,3-a]pyrazin-8-one], the IC50 at human PDE1A was 0.00371 ± 8e-05 µM; on human PDE1B, 0.00365 ± 0.00188 µM; at human PDE1C it was 0.00106 ± 0.00024 µM; in test [1], more than 100 µM; against human PDE4D, 24 µM; on human PDE6A/6B, more than 10 µM.

Turning to `CCCCn1c(C)c(C)n2c(C3(C4CC4)CC3)nnc2c1=O` [Example 5, 7-Butyl-3-(1-cyclopropylcyclopropyl)-5,6-dimethyl-[1,2,4]triazolo[4,3-a]pyrazin-8-one], the concentration for half-maximal inhibition (IC50) on human PDE1A was 0.0115 ± 0.0036 µM; on human PDE1B, 0.0111 ± 0.003 µM; at human PDE1C it was 0.0027 ± 0.00016 µM; in test [1], more than 100 µM; at human PDE4D it was 29.9 µM; at human PDE6A/6B it was more than 10 µM.

Turning to `Cc1c(C)n2c(C3(C4CC4)CC3)nnc2c(=O)n1CC1(C)CC1` [Example 15, 3-(1-Cyclopropylcyclopropyl)-5,6-dimethyl-7-[(1-methylcyclopropyl)methyl]-[1,2,4]triazolo[4,3-a]pyrazin-8-one], the concentration for half-maximal inhibition (IC50) on human PDE1A is 0.0031 ± 0.0011 µM; on human PDE1B it was 0.0049 ± 0.0018 µM; at human PDE1C, 0.0014 ± 0.0003 µM; in test [1] it was 9.6 µM; against human PDE4D it was 14 ± 1.3 µM; on human PDE6A/6B, more than 10 µM.

These data come from patent US11453673B2, “Substituted [1,2,4]triazolo[4,3-a]pyrazines as phosphodiesterase inhibitors” (Eli Lilly and Company, priority 2018, dated 2022).
